We go through six molecules from patent US4855304A, “Dinucleoside pyrophosphates and pyrophosphate homologs as plant antivirals” (Repligen Corporation, priority 1985, dated 1989).

The subject of test [1] is TMV (tobacco mosaic virus) replication in TMV-infected tobacco leaf discs. The experiment in a line: Antiviral activity in TMV-infected leaf discs (TMV content by ELISA). The format is cell-based, tobacco mosaic virus; leaf discs of N. tabacum var. samsun. Particulars: for ng TMV/ml: control 550 (Table 4). The procedure:
Assays for antiviral activity in TMV-infected leaf discs were done using leaves of N. tabacum var. samsun in which TMV is systemically spread. Leaves were mechanically inoculated with purified TMV (5 μg/ml in 0.01M sodium phosphate buffer, pH 7.6, containing 0.1 g/ml of carborundum as an abrasive). Immediately after infection, leaf discs (6.5 mm diameter) were punched out of the inoculated leaves and placed in a beaker containing 0.01M sodium phosphate, pH 7.6.
selected at random from this common pool and placed onto separate petri dishes, each containing 18 ml of 10 mM 4-(2-hydroxyethyl)-1-piperazine ethanesulfonic acid (HEPES)-KOH, pH 7.05, 188 mg/L Na2 HPO4 --7H2 O. […] At the end of the 1 hr incubation, the buffer containing the antiviral dinucleotide was replaced by a buffer lacking the antiviral dinucleotide for another hr. The discs were then washed with 0.01M sodium phosphate, pH 7.6, and were allowed to incubate for an additional 72 hr in phosphate buffer (Devash, Y., Biggs, S. and Sela, I. [1982] Science 216: 1415-1416; Devash, Y. et al. [1984] J. Biol. Chem. 259: 3482-3486). The discs were homogenized in 0.01M sodiuM phosphate buffer, pH 7.6, and the TMV content was determined by enzyme-linked immunosorbent assay (ELISA) as described below.
(§1) The TMV content of the homogenates was determined by ELISA essentially by the method of Clark and Adams ([1977] J. Gen. Virol. 34: 475-483) but with the following order of layers on the microtiter plates.
(§2) (a) the γ-globulin fraction of a serum obtained from a chicken immunized against TMV was absorbed directly to the plate.
(§3) (b) The next layer was the tested sample (at various dilutions) or a series of purified TMV suspensions at known concentrations (calibration curve).
(§4) (c) The third layer was the γ-globulin from the serum of a TMV-immunized rabbit.
(§5) (d) The final layer was goat antibody to rabbit immunoglobulin G conjugated with alkaline phosphatase (Sigma). The release of phosphate from p-nitrophenyl phosphate due to the antibody-conjugated alkaline phosphatase was monitored spectrophotometrically with a Microplate reader (Dynatech Diagnostics, Inc. South Windham, ME) and was proportional to TMV concentration in a log linear manner for about two logs (<2 ng to>200 ng). (Devash, Y., Biggs, S. and Sela, I. [1982] Science 216: 1415-1416)
The γ-globulin fraction of serum obtained from chickens and rabbits immunized against TMV were generous gifts from Professor Ilan Sela, The Hebrew University of Jerusalem, Agriculture Faculty, Rehobot, Israel.

Test [2] deals with TMV (tobacco mosaic virus) replication in intact N. glutinosa plants. The experiment in a line: Antiviral activity in N. glutinosa intact plants, infectivity test (local lesions). The format is in vivo, tobacco mosaic virus; Nicotiana glutinosa. Particulars: for induced resistance to TMV infection in the non-treated half-leaf: 1 μM (10^-6 M). The protocol:
(§6) Nicotiana glutinosa and N. tabacum var. samsum plants were grown in potting medium in greenhouse conditions (25±3° C., and constant illumination). The plants were fertilized with a commercial fertilizer every two weeks. Plants were used at 5-8 leaf stage (Devash, Y., Biggs, S. and Sela, I. [1982] Science 216: 1415-1416; Devash, Y. et al. [1984] Jour. Biol. Chem. 259: 3482-3486).
The ability of the antiviral dinucleotides to inhibit TMV replication in intact N. glutinosa plants (containing N-gene for TMV localization) was determined by infectivity tests. Solutions containing 5 μg/ml TMV, 0.1 μg/ml carborundum, and antiviral dinucleotide were applied to 5 half-leaves of N. glutinosa. The opposite half-leaves served as controls and were inoculated with infecting solution containing TMV and carborundum but no dinucleotides. The infection was allowed to proceed 48 hr. Inhibition of TMV replication was calculated as the percent of local lesions produced in antiviral compound treated half-leaves, as compared to control half-leaves.

Test [3] concerns TMV (tobacco mosaic virus) in N. tabacum plants. The experiment in a line: Root application to N. tabacum intact plants (TMV content by ELISA). The format is in vivo, tobacco mosaic virus; Nicotiana tabacum. The procedure:
as §6
Nicotiana tabacum plants were used as a source of plant tissue in which TMV is spread systemically.
(a) Root application: N. tabacum plants were removed from their pots and transferred into 50 ml tubes containing 10 ml of 10 mM HEPES-KOH, pH 7.6, and the antiviral dinucleotides. Two hr later, plants were transferred into 50 ml tubes lacking the antiviral compound and were inoculated by TMV as described above. Twenty-four hr later leaves were homogenized in 0.01M sodium phosphate buffer, pH 7.6, (1 g leaves/3 ml buffer) and TMV content was determined by ELISA.
as §1, §2, §3, §4, §5
In order to establish the relationship of the induced resistance to the N-gene for viral localization and to the transmission ability of the compounds, a comparison between leaf application and root application of antiviral dinucleotides to N. tabacum plants was made. N. tabacum plants were removed into vials containing 10 ml of 10 mM HEPES-KOH, pH 7.6, and 1 μM of antiviral dinucleotide. The plant roots were allowed to remain in the solutions for 2 hr and then were transferred to vials containing the buffer without the antiviral compounds.
The plants then were infected with TMV as above. (See section 4. Antiviral activity on N. tabacum intact plants, paragraph [a].) Another group of N. tabacum plants was tested as described in the above-noted section, paragraph (b).
In general terms: ELISA stands for enzyme-linked immunosorbent assay.

[4] abbreviates: 10 nM (10^-8 M), non-treated half-leaf.
The mark [5] stands for this setting: 10 nM (10^-8 M), treated half-leaf.
Setting [6] is: 100 nM (10^-7 M), non-treated half-leaf.
Setting [7] is: 100 nM (10^-7 M), treated half-leaf.
Setting [8] is: 1000 nM (10^-6 M), non-treated half-leaf.
The mark [9] stands for this setting: 1000 nM (10^-6 M), treated half-leaf.

Each structure is given as a SMILES string.

With `Nc1ncnc2c1ncn2[C@@H]1O[C@H](COP(=O)(O)OP(=O)(O)O[C@H]2[C@@H](O)[C@H](n3cnc4c(N)ncnc43)O[C@@H]2CO)[C@@H](O)[C@H]1O` [A3'pp5'A, adenosine 3',5'-diphospho-adenosine], the results for the “ng TMV/ml” value in test [1] (2 × 10^-9 M), in test [1] (20 × 10^-9 M) and in test [1] (200 × 10^-9 M) were 550 ng TMV/ml, 200 ng TMV/ml and 150 ng TMV/ml, respectively. Moreover, the “effectiveness in inhibiting TMV replication compared with 2',5'-adenylate trimer core” value in test [1] (TMV-infected discs, in words) is on record as “confer similar antiviral state”. Also, in test [1] (Tobacco mosaic virus, 2 × 10^-9 M (Table 4), read-out: % Inhibition as Related to Control), the inhibition (usually the share of the control response that was lost under treatment) at 0.002 µM turned out to be 0%. Besides, the inhibition at 0.02 µM in test [1] (Tobacco mosaic virus, 20 × 10^-9 M (Table 4), read-out: % Inhibition as Related to Control) is 64%. In addition, the inhibition at 0.2 µM in test [1] (Tobacco mosaic virus, 200 × 10^-9 M (Table 4), read-out: % Inhibition as Related to Control) was 73%. For the same molecule, the “induced resistance to TMV infection in the non-treated half-leaf” value in test [2] (in words) was “resulted in an induced resistance to TMV infection even in the non-treated half-leaf”. In addition, the “percent protection as compared to control TMV infected leaves” value (from here on “percent protection”) is listed as 93% in test [2] (10^-6 M, non-treated half leaf (Table 5)) and 100% in test [2] (10^-6 M, treated half leaf (Table 5)). The “inhibition of TMV replication (inhibition of formation of local lesions)” value in test [2] (N. glutinosa intact plants, in words) is listed as “inhibited the TMV replication”.

Turning to `Nc1ccn([C@@H]2O[C@H](COP(=O)(O)OP(=O)(O)OC[C@H]3O[C@@H](n4cnc5c(N)ncnc54)[C@H](O)[C@@H]3O)[C@@H](O)[C@H]2O)c(=O)n1` [A5'pp5'C, adenosine 5',5'"-p^1,p^2 -diphospho-cytidine], the “percent protection” value in test [2] (setting [4]) is on record as 36.1%; in test [2] (setting [5]), 55.0%; in test [2] (setting [6]) it was 35.5%; in test [2] (setting [7]) it was 51.9%; in test [2] (setting [8]) it was 32.9%; in test [2] (setting [9]) it was 63.5%. In addition, in test [2] (in words), the “induced resistance to TMV infection in the non-treated half-leaf” value is reported as “resulted in an induced resistance to TMV infection even in the non-treated half-leaf”.

Turning to `Nc1nc2c(ncn2[C@@H]2O[C@H](COP(=O)(O)OP(=O)(O)OC[C@H]3O[C@@H](n4cnc5c(N)ncnc54)[C@H](O)[C@@H]3O)[C@@H](O)[C@H]2O)c(=O)[nH]1` [A5'pp5'G, adenosine 5',5'"-p^1,p^2 -diphospho-guanosine], the “suppression (inhibition) of the virus” value in test [3] (1 μM (10^-6 M), exposure of plant roots) is 98-100%. The “% Protection” value in test [3] (1 μM, roots, 2 hr) worked out at 98%. Further, the “ng TMV/g of leaves” value in test [3] (1 μM, roots, 2 hr, control 200) is given as 4 ng TMV/g of leaves. In addition, the “percent protection” value in test [2] (setting [4]) is 59.8%; in test [2] (setting [5]), 84.8%; in test [2] (setting [6]) it was 44.7%; in test [2] (setting [7]), 89.5%; in test [2] (setting [8]) it was 100%; in test [2] (setting [9]), 100%. In test [2] (in words), the “induced resistance to TMV infection in the non-treated half-leaf” value is listed as “resulted in an induced resistance to TMV infection even in the non-treated half-leaf”.

As for `Nc1ncnc2c1ncn2[C@@H]1O[C@H](COP(=O)(O)OP(=O)(O)OC[C@H]2O[C@@H](n3ccc(=O)[nH]c3=O)[C@H](O)[C@@H]2O)[C@@H](O)[C@H]1O` [A5'pp5'U, adenosine 5',5'"-p^1,p^2 -diphospho-uridine], the “percent protection” value in test [2] (setting [4]) was 5.2%; in test [2] (setting [5]), 38.1%; in test [2] (setting [6]) it was 0%; in test [2] (setting [7]), 0%; in test [2] (setting [8]), 21.0%; in test [2] (setting [9]), 80.2%.

Consider `Nc1ncnc2c1ncn2[C@@H]1O[C@H](COP(=O)(O)OP(=O)(O)O[C@@H]2[C@H](O)[C@@H](CO)O[C@H]2n2cnc3c(N)ncnc32)[C@@H](O)[C@H]1O` [Adenosine 2',5'-p^1,p^2-diadenosine, adenosine 2',5'-diphospho-adenosine], for which the “inhibition of TMV replication” value in test [1] (TMV-infected discs, in words) is “effective inhibitor of TMV replication”. The inhibition at 1 µM in test [1] (Tobacco mosaic virus, 10^-6 M (Table 6), read-out: % Inhibition as related to control) was 42%. The inhibition at 0.1 µM in test [1] (Tobacco mosaic virus, 10^-7 M (Table 6), read-out: % Inhibition as related to control) is 37%. The inhibition at 0.01 µM in test [1] (Tobacco mosaic virus, 10^-8 M (Table 6), read-out: % Inhibition as related to control) came to 26.4%. In test [1] (Tobacco mosaic virus, 10^-9 M (Table 6), read-out: % Inhibition as related to control), the inhibition at 0.001 µM was 21%. Further, the inhibition at 0.0001 µM in test [1] (Tobacco mosaic virus, 10^-10 M (Table 6), read-out: % Inhibition as related to control) is 0%.

Regarding `Nc1ncnc2c1ncn2[C@@H]1O[C@H](COP(=O)(O)OP(=O)(O)OC[C@H]2O[C@@H](n3cnc4c(N)ncnc43)[C@@H]3OP(=O)(O)O[C@@H]32)[C@H]2OP(=O)(O)O[C@H]21` [P<A5'PP5'A>P, 2',3'-cyclic phospho-diadenosine 5',5'"-p^1,p^2-diphosphate], the “antiviral activity/potency on structural modification” value in test [1] (in words, compared to dinucleotides with 2 and 3 internal phosphates) is “did not decrease their antiviral potency”.
